Active and inactive are the calls of the source. The rule behind the calls is not given here.
Key:
[1] = tested on: HCT-116; assay: Anti-metastatic activity against human HCT-116 cells assessed as inhibition of cell migration by measuring wound width at 3.2 uM and measured at 48 hrs by scratch wound healing assay (Rvb=179.681 micrometer); type: functional
[2] = tested on: HCT-116; assay: Antiproliferative activity against human HCT-116 cells assessed as cell growth inhibition at 20 uM incubated for 48 hrs by MTT assay; type: functional
[3] = tested on: HCT-116; assay: Anti-metastatic activity against human HCT-116 cells assessed as inhibition of cell migration by measuring wound width at 1.6 uM and measured at 48 hrs by scratch wound healing assay (Rvb=179.681 micrometer); type: functional
[4] = tested on: HCT-116; assay: Induction of apoptosis in human HCT-116 cells assessed as late apoptotic cells at 1.6 uM incubated for 48 hrs by annexin V-FITC and propidium iodide staining based flow cytometry (Rvb=13.51%); type: functional
[5] = tested on: HCT-116; assay: Induction of apoptosis in human HCT-116 cells assessed as cell shrinkage at 1.6 to 6.4 uM incubated for 48 hrs by phase-contrast microscopy; type: functional, cell-based; settings: dose 1.6-6.4 µM
[6] = tested on: SK-MEL-28; assay: Antiproliferative activity against human SK-MEL-28 cells assessed as cell growth inhibition at 20 uM incubated for 48 hrs by MTT assay; type: functional
[7] = tested on: HCT-116; assay: Induction of mitochondrial transmembrane potential loss in human HCT-116 cells assessed as reduction in red/green fluorescence ratio at 1.6 to 3.2 uM incubated for 48 hrs by JC-1 staining based fluorescence microscopic analysis; type: functional, cell-based; settings: dose 1.6-3.2 µM
[8] = tested on: HCT-116; assay: Induction of apoptosis in human HCT-116 cells assessed as reduction in number of viable cells at 1.6 to 6.4 uM incubated for 48 hrs by phase-contrast microscopy; type: functional, cell-based; settings: dose 1.6-6.4 µM
[9] = tested on: HCT-116; assay: Anti-metastatic activity against human HCT-116 cells assessed as inhibition of cell migration by measuring wound width at 6.4 uM and measured at 48 hrs by scratch wound healing assay (Rvb=179.681 micrometer); type: functional
[10] = tested on: SK-MEL-28; assay: Antiproliferative activity against human SK-MEL-28 cells assessed as cell growth inhibition incubated for 48 hrs by MTT assay; type: functional, cell-based; settings: SK-MEL-28, 48 h
[11] = tested on: HCT-116; assay: Anti-metastatic activity against human HCT-116 cells assessed as inhibition of cell migration by measuring wound width at 1.6 uM and measured at 0 hrs by scratch wound healing assay (Rvb=287.904 micrometer); type: functional
[12] = tested on: HCT-116; assay: Induction of apoptosis in human HCT-116 cells assessed as chromatin condensation at 1.6 to 6.4 uM incubated for 48 hrs by DAPI staining based fluorescence microscopy; type: functional, cell-based; settings: dose 1.6-6.4 µM
[13] = tested on: HCT-116; assay: Induction of apoptosis in human HCT-116 cells assessed as necrotic cells at 3.2 uM incubated for 48 hrs by annexin V-FITC and propidium iodide staining based flow cytometry (Rvb=13.42%); type: functional
[14] = tested on: HCT-116; assay: Anti-metastatic activity against human HCT-116 cells assessed as inhibition of cell migration at 1.6 to 6.4 uM and measured at 48 hrs by scratch wound healing assay; type: functional, cell-based; settings: dose 1.6-6.4 µM
[15] = tested on: HCT-116; assay: Induction of apoptosis in human HCT-116 cells assessed as early apoptotic cells at 6.4 uM incubated for 48 hrs by annexin V-FITC and propidium iodide staining based flow cytometry (Rvb=4.44%); type: functional
[16] = tested on: HCT-116; assay: Induction of apoptosis in human HCT-116 cells assessed as live cells at 6.4 uM incubated for 48 hrs by annexin V-FITC and propidium iodide staining based flow cytometry (Rvb=68.64%); type: functional
[17] = tested on: HCT-116; assay: Induction of apoptosis in human HCT-116 cells assessed as late apoptotic cells at 3.2 uM incubated for 48 hrs by annexin V-FITC and propidium iodide staining based flow cytometry (Rvb=13.51%); type: functional
[18] = tested on: HCT-116; assay: Induction of apoptosis in human HCT-116 cells assessed as early apoptotic cells at 3.2 uM incubated for 48 hrs by annexin V-FITC and propidium iodide staining based flow cytometry (Rvb=4.44%); type: functional
[19] = tested on: HCT-116; assay: Induction of apoptosis in human HCT-116 cells assessed as late apoptotic cells at 6.4 uM incubated for 48 hrs by annexin V-FITC and propidium iodide staining based flow cytometry (Rvb=13.51%); type: functional
[20] = tested on: HCT-116; assay: Anti-metastatic activity against human HCT-116 cells assessed as inhibition of cell migration by measuring wound width at 3.2 uM and measured at 0 hrs by scratch wound healing assay (Rvb=287.904 micrometer); type: functional
[21] = target: Epidermal growth factor receptor (Homo sapiens, UniProt P00533); assay: Inhibition of EGFR (unknown origin) using poly E4Y1 and ATP as substrate incubated for 60 mins by ADP-Glo kinase assay
[22] = tested on: A549; assay: Antiproliferative activity against human A549 cells assessed as cell growth inhibition incubated for 48 hrs by MTT assay; type: functional, cell-based; settings: A549, 48 h
[23] = tested on: HCT-116; assay: Induction of apoptosis in human HCT-116 cells assessed as live cells at 3.2 uM incubated for 48 hrs by annexin V-FITC and propidium iodide staining based flow cytometry (Rvb=68.64%); type: functional
[24] = tested on: HCT-116; assay: Induction of apoptosis in human HCT-116 cells assessed as increase in late apoptotic cells by measuring ratio of orange-red fluorescence at 1.6 to 6.4 uM incubated for 48 hrs by Acridine orange/ethidium bromide staining based fluorescence microscopy; type: functional, cell-based; settings: dose 1.6-6.4 µM
[25] = tested on: HCT-116; assay: Induction of intracellular ROS generation in human HCT-116 cells at 1.6 to 3.2 uM incubated for 48 hrs by DCFDA staining based fluorescence analysis; type: functional, cell-based; settings: dose 1.6-3.2 µM
[26] = tested on: HCT-116; assay: Induction of mitochondrial transmembrane potential loss in human HCT-116 cells assessed as reduction in red/green fluorescence ratio at 6.4 uM incubated for 48 hrs by JC-1 staining based fluorescence microscopic analysis; type: functional, cell-based
[27] = tested on: HCT-116; assay: Induction of apoptosis in human HCT-116 cells assessed as necrotic cells at 6.4 uM incubated for 48 hrs by annexin V-FITC and propidium iodide staining based flow cytometry (Rvb=13.42%); type: functional
[28] = tested on: MCF7; assay: Antiproliferative activity against human MCF7 cells assessed as cell growth inhibition incubated for 48 hrs by MTT assay; type: functional, cell-based; settings: MCF7, 48 h
[29] = tested on: A549; assay: Antiproliferative activity against human A549 cells assessed as cell growth inhibition at 20 uM incubated for 48 hrs by MTT assay; type: functional
[30] = tested on: HCT-116; assay: Induction of apoptosis in human HCT-116 cells assessed as increase in necrotic cells by measuring ratio of orange-red fluorescence at 1.6 to 6.4 uM incubated for 48 hrs by Acridine orange/ethidium bromide staining based fluorescence microscopy; type: functional, cell-based; settings: dose 1.6-6.4 µM
[31] = tested on: HCT-116; assay: Induction of intracellular ROS generation in human HCT-116 cells at 6.4 uM incubated for 48 hrs by DCFDA staining based fluorescence analysis; type: functional, cell-based
[32] = tested on: HCT-116; assay: Induction of apoptosis in human HCT-116 cells assessed as early apoptotic cells at 1.6 uM incubated for 48 hrs by annexin V-FITC and propidium iodide staining based flow cytometry (Rvb=4.44%); type: functional
[33] = tested on: HCT-116; assay: Induction of apoptosis in human HCT-116 cells assessed as pyknotic/fragmented bright nucleus at 1.6 to 6.4 uM incubated for 48 hrs by DAPI staining based fluorescence microscopy; type: functional, cell-based; settings: dose 1.6-6.4 µM
[34] = tested on: HCT-116; assay: Antiproliferative activity against human HCT-116 cells assessed as cell growth inhibition incubated for 48 hrs by MTT assay; type: functional, cell-based; settings: HCT-116, 48 h
[35] = tested on: HCT-116; assay: Induction of apoptosis in human HCT-116 cells assessed as horse shoe-shaped nuclear morphological change at 1.6 to 6.4 uM incubated for 48 hrs by DAPI staining based fluorescence microscopy; type: functional, cell-based; settings: dose 1.6-6.4 µM
[36] = tested on: HCT-116; assay: Induction of apoptosis in human HCT-116 cells assessed as live cells at 1.6 uM incubated for 48 hrs by annexin V-FITC and propidium iodide staining based flow cytometry (Rvb=68.64%); type: functional
[37] = tested on: HCT-116; assay: Induction of apoptosis in human HCT-116 cells assessed as cell shape alteration at 1.6 to 6.4 uM incubated for 48 hrs by phase-contrast microscopy; type: functional, cell-based; settings: dose 1.6-6.4 µM
[38] = tested on: HCT-116; assay: Anti-metastatic activity against human HCT-116 cells assessed as inhibition of cell migration by measuring wound width at 6.4 uM and measured at 0 hrs by scratch wound healing assay (Rvb=287.904 micrometer); type: functional
[39] = Cytotoxicity against human HaCaT cells assessed as cell growth inhibition incubated for 48 hrs by MTT assay; type: toxicity, cell-based
[40] = tested on: HCT-116; assay: Induction of apoptosis in human HCT-116 cells assessed as necrotic cells at 1.6 uM incubated for 48 hrs by annexin V-FITC and propidium iodide staining based flow cytometry (Rvb=13.42%); type: functional
[41] = tested on: MCF7; assay: Antiproliferative activity against human MCF7 cells assessed as cell growth inhibition at 20 uM incubated for 48 hrs by MTT assay; type: functional

Chain of Epidermal growth factor receptor (P00533 whole entry): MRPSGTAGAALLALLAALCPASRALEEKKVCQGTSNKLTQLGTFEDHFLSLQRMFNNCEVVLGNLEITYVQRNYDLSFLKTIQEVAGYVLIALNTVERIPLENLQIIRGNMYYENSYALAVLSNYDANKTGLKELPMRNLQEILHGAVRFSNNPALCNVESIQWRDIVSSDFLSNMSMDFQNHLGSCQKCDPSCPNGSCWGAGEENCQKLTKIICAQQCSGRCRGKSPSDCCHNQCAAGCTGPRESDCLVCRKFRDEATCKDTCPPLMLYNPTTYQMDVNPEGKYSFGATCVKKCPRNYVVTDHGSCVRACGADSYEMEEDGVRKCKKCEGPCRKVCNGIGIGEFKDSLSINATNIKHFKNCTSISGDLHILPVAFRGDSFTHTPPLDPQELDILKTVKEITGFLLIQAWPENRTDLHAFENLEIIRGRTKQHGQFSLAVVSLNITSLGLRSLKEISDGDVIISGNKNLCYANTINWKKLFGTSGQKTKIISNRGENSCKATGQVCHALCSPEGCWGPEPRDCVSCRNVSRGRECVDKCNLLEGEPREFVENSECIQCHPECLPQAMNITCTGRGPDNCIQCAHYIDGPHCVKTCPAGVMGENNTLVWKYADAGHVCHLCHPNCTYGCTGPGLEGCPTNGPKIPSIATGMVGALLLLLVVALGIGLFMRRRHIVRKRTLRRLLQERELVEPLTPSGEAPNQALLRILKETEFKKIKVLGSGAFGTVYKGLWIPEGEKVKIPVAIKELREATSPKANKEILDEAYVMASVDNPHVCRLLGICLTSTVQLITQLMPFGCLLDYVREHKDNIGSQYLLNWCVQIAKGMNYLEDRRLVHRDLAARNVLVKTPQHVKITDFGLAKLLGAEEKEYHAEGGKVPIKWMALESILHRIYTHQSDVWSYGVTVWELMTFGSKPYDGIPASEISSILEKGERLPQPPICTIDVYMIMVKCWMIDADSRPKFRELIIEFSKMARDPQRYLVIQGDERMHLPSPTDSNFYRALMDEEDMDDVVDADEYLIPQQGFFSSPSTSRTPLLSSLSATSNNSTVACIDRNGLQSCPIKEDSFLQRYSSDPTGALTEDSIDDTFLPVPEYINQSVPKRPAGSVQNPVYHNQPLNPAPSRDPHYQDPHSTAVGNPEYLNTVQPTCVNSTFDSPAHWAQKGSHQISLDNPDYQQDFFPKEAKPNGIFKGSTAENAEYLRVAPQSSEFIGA

## Cc1sc([Se]c2sc(C)c(-c3cccc(Br)c3)c2C(=O)NC(CO)C(=O)N2CCCC2)c(C(=O)NC(CO)C(=O)N2CCCC2)c1-c1cccc(Br)c1 (stereo unspecified)
[1]
  Activity: 276.354 um
[2]
  inhibition at 20 µM: 75%
[3]
  Activity: 235.37 um
[4]
  Activity: 27.98%
[5]
  Activity: Dose-Dependent Effect
[6]
  inhibition at 20 µM: 78%
[7]
  Activity: Dose-Dependent Effect
[8]
  Activity: Dose-Dependent Effect
[9]
  Activity: 267.94 um
[10]
  IC50: 8.81 µM
[11]
  Activity: 257.433 um
[12]
  Activity: Active
[13]
  Activity: 12.61%
[14]
  Activity: Dose-Dependent Effect
[15]
  Activity: 3.04%
[16]
  Activity: 2.56%
[17]
  Activity: 43.71%
[18]
  Activity: 11.75%
[19]
  Activity: 88.93%
[20]
  Activity: 296.312 um
[21]
  IC50: 0.0944 µM
[22]
  IC50: 7.86 µM
[23]
  Activity: 32.12%
[24]
  Activity: Dose-Dependent Effect
[25]
  Activity: Dose-Dependent Effect
[26]
  Activity: Active
[27]
  Activity: 5.47%
[28]
  IC50: 8.06 µM
[29]
  inhibition at 20 µM: 90%
[30]
  Activity: Dose-Dependent Effect
[31]
  Activity: Active
[32]
  Activity: 8.97%
[33]
  Activity: Active
[34]
  IC50: 3.2 µM
[35]
  Activity: Active
[36]
  Activity: 52.95%
[37]
  Activity: Dose-Dependent Effect
[38]
  Activity: 275.298 um
[39]
  IC50 at 48 h: 24 µM
[40]
  Activity: 10.1%
[41]
  inhibition at 20 µM: 90%
